Reference: ChEMBL document CHEMBL1201862, “PubChem BioAssay data set” (2004)
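Dose response: 5 concentrations. Exposure: 48 h. Format: 96-well plates. Endpoint: linear interpolation; highest concentration if not reached. At the GI50, growth is halved.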 Active and inactive are the calls of the source. Rule as the data show it: active = GI50 up to about 1.1 µM and inactive = higher.

Columns and labels:
Assay in all cases: NCI tumour cell line growth inhibition, 48 h
786-0 = test system: 786-0
A498 = test system: A498
A549 = test system: A549
ACHN = test system: ACHN
BT-549 = test system: BT-549
EKVX = test system: EKVX
HCT-116 = test system: HCT-116
HT-29 = test system: HT-29
MDA-MB-231 = test system: MDA-MB-231
MDA-MB-435 = test system: MDA-MB-435
Malme-3M = test system: Malme-3M
NCI-H460 = test system: NCI-H460
NCI/ADR-RES = test system: NCI/ADR-RES
OVCAR-8 = test system: OVCAR-8
PC-3 = test system: PC-3
RPMI-8226 = test system: RPMI-8226
SF-539 = test system: SF-539
TK-10 = test system: TK-10
UACC-257 = test system: UACC-257
UACC-62 = test system: UACC-62

Measured: GI50

Cn1c(=O)c2nc(SCCN3CCOCC3)[nH]c2n(C)c1=S
inactive: 786-0 > 100 µM | A498 > 100 µM | A549 > 100 µM | ACHN > 100 µM | BT-549 > 100 µM | EKVX > 100 µM | HCT-116 > 100 µM | HT-29 > 100 µM | MDA-MB-231 > 100 µM | MDA-MB-435 > 100 µM | Malme-3M > 100 µM | NCI-H460 > 100 µM | NCI/ADR-RES > 100 µM | OVCAR-8 > 100 µM | PC-3 > 100 µM | RPMI-8226 > 100 µM | SF-539 > 100 µM | TK-10 > 100 µM | UACC-257 > 100 µM | UACC-62 > 100 µM

COc1cc2c(OC)c3cc(C)oc(=O)c3c(O)c2c(O)c1-c1c(OC)cc2c(OC)c3cc(C)oc(=O)c3c(O)c2c1O
inactive: 786-0 22.2 µM | A498 24.2 µM | A549 19.4 µM | ACHN 16.5 µM | BT-549 24.5 µM | EKVX 21.9 µM | HCT-116 14.9 µM | HT-29 22 µM | MDA-MB-231 18.4 µM | MDA-MB-435 18.2 µM | Malme-3M 17.7 µM | NCI-H460 21.6 µM | NCI/ADR-RES 17.1 µM | OVCAR-8 13 µM | PC-3 14 µM | RPMI-8226 17.3 µM | SF-539 17.6 µM | TK-10 24.4 µM | UACC-257 20.2 µM | UACC-62 20.9 µM

O=C1C2=Cc3ccccc3OC2(O)Oc2cc3ccccc3cc21 (stereo not given)
inactive: 786-0 > 100 µM | A498 > 100 µM | A549 > 100 µM | ACHN 87.9 µM | BT-549 15.1 µM | EKVX > 100 µM | HCT-116 > 100 µM | HT-29 > 100 µM | MDA-MB-231 > 100 µM | MDA-MB-435 > 100 µM | Malme-3M > 100 µM | NCI-H460 > 100 µM | NCI/ADR-RES > 100 µM | OVCAR-8 > 100 µM | PC-3 > 100 µM | RPMI-8226 > 100 µM | SF-539 20 µM | TK-10 > 100 µM | UACC-257 > 100 µM | UACC-62 > 100 µM

OC(C1CCCC1=N/N=C1/CCCC1C(O)(C(F)(F)Cl)C(F)(F)Cl)(C(F)(F)Cl)C(F)(F)Cl (stereo not given)
inactive: 786-0 > 10 µM | A498 > 10 µM | A549 > 10 µM | ACHN > 10 µM | BT-549 > 10 µM | EKVX > 10 µM | HCT-116 > 10 µM | HT-29 > 10 µM | MDA-MB-231 > 10 µM | MDA-MB-435 > 10 µM | Malme-3M > 10 µM | NCI-H460 > 10 µM | NCI/ADR-RES > 10 µM | OVCAR-8 > 10 µM | PC-3 > 10 µM | RPMI-8226 > 10 µM | SF-539 > 10 µM | TK-10 > 10 µM | UACC-257 > 10 µM | UACC-62 > 10 µM

O=C(NCCCN1CCN(CCCNC(=O)c2cc(-c3ccccc3)nc3ccccc23)CC1)c1cc(-c2ccccc2)nc2ccccc12
inactive: 786-0 7.11 µM | A498 33.9 µM | A549 20.6 µM | ACHN 15.4 µM | BT-549 17.6 µM | EKVX 21.5 µM | HCT-116 23.4 µM | HT-29 3.63 µM | MDA-MB-231 26.1 µM | MDA-MB-435 4.15 µM | Malme-3M 1.59 µM | NCI-H460 9.2 µM | NCI/ADR-RES 24.1 µM | OVCAR-8 12.2 µM | PC-3 9.62 µM | RPMI-8226 7.8 µM | SF-539 15.2 µM | TK-10 27.3 µM | UACC-257 2.29 µM | UACC-62 15.9 µM

Nc1ccc(Oc2ccc(C3(c4ccc(Oc5ccc(N)c(O)c5)cc4)C4CC5C6CC7CC5C3C(C7)C6C4)cc2)cc1O
inactive: 786-0 1.73 µM | A498 2.55 µM | A549 1.56 µM | ACHN 1.75 µM | BT-549 4.15 µM | EKVX 1.38 µM | HCT-116 1.71 µM | HT-29 1.91 µM | MDA-MB-231 1.89 µM | MDA-MB-435 1.53 µM | Malme-3M 3.23 µM | NCI-H460 2.41 µM | NCI/ADR-RES 5.62 µM | OVCAR-8 1.8 µM | PC-3 1.86 µM | RPMI-8226 1.63 µM | SF-539 2.61 µM | TK-10 3.15 µM | UACC-257 2.5 µM | UACC-62 4.02 µM

c1cc2cc(c1)CN1CCNCCN(CCNCC1)Cc1cccc(c1)CN1CCNCCN(CCNCC1)C2
inactive: 786-0 > 100 µM | A498 > 100 µM | A549 > 100 µM | ACHN > 100 µM | BT-549 > 100 µM | EKVX > 100 µM | HCT-116 > 100 µM | HT-29 > 100 µM | MDA-MB-231 > 100 µM | MDA-MB-435 > 100 µM | Malme-3M > 100 µM | NCI-H460 > 100 µM | NCI/ADR-RES > 100 µM | OVCAR-8 > 100 µM | PC-3 > 100 µM | RPMI-8226 > 100 µM | SF-539 > 100 µM | TK-10 > 100 µM | UACC-257 > 100 µM | UACC-62 > 100 µM

COc1ccccc1NC1=NCC(C)S1 (stereo not given)
inactive: 786-0 > 100 µM | A498 > 100 µM | A549 > 100 µM | ACHN > 100 µM | BT-549 > 100 µM | EKVX > 100 µM | HCT-116 > 100 µM | HT-29 > 100 µM | MDA-MB-231 > 100 µM | MDA-MB-435 > 100 µM | Malme-3M > 100 µM | NCI-H460 > 100 µM | NCI/ADR-RES > 100 µM | OVCAR-8 > 100 µM | PC-3 > 100 µM | RPMI-8226 > 100 µM | SF-539 > 100 µM | TK-10 > 100 µM | UACC-257 > 100 µM | UACC-62 > 100 µM

COC(=O)C1(Cc2ccc3c(c2)CCC3)Cc2ccc3c(c2C1O)CCC3 (stereo not given)
inactive: 786-0 14.7 µM | A498 11.7 µM | A549 14.1 µM | ACHN 13 µM | BT-549 14.9 µM | EKVX 8.89 µM | HCT-116 11.8 µM | HT-29 15.2 µM | MDA-MB-231 12.7 µM | MDA-MB-435 13 µM | Malme-3M 12.2 µM | NCI-H460 21 µM | NCI/ADR-RES 12.6 µM | OVCAR-8 17.3 µM | PC-3 15.1 µM | RPMI-8226 17 µM | SF-539 21.2 µM | TK-10 17.3 µM | UACC-257 10.7 µM | UACC-62 15.5 µM

CC1(C)CCCCCCC2OC2CCCCCC(C)(C)C1=O (stereo not given)
inactive: 786-0 39.3 µM | A498 > 84.9 µM | A549 39.3 µM | ACHN 30.8 µM | BT-549 27.5 µM | EKVX 60.1 µM | HCT-116 35.8 µM | HT-29 25.9 µM | MDA-MB-231 29.9 µM | MDA-MB-435 35.5 µM | Malme-3M > 53.8 µM | NCI-H460 36.1 µM | NCI/ADR-RES 25.9 µM | OVCAR-8 44.4 µM | PC-3 35.1 µM | RPMI-8226 32.5 µM | SF-539 > 94.8 µM | TK-10 > 100 µM | UACC-257 30.7 µM | UACC-62 19 µM
